According to patent publication US5919771A, “Urea and thiourea derivatives of glycopeptides” (Eli Lilly and Company, priority 1998, dated 1999):

Key:
Format in all cases: cell-based
[1] = test system: Enterococcus faecium and faecalis (RESISTANT); settings: geometric mean of 4-6 isolates
Method: (§1) The antibacterial efficacy of the present compounds is illustrated by Table II. The minimal inhibitory concentrations (MICs) were determined using a standard broth micro-dilution assay.

[2] = test system: Enterococcus faecium and faecalis (SENSITIVE); settings: geometric mean of 4-6 isolates
Method: as §1

[3] = test system: Staphylococcus aureus 446; experiment: MIC, standard broth micro-dilution assay, SA 446
Method: as §1

[4] = test system: Staphylococcus aureus 489; experiment: MIC, standard broth micro-dilution assay, SA 489
Method: as §1

[5] = test system: Staphylococcus aureus 447; experiment: MIC, standard broth micro-dilution assay, SA 447
Method: as §1

[6] = test system: Staphylococcus haemolyticus 105; experiment: MIC, standard broth micro-dilution assay, SH 105
Method: as §1

[7] = test system: Staphylococcus haemolyticus 415; experiment: MIC, standard broth micro-dilution assay, SH 415
Method: as §1

[8] = test system: Staphylococcus epidermidis 270; experiment: MIC, standard broth micro-dilution assay, SE 270
Method: as §1

[9] = test system: Streptococcus pyogenes C203; experiment: MIC, standard broth micro-dilution assay, SPY C203
Method: as §1

[10] = test system: Streptococcus pneumoniae P1; experiment: MIC, standard broth micro-dilution assay, SPN P1
Method: as §1

Structure (SMILES) | Minimal Inhibitory Concentration (MIC) RESISTANT [1] | Minimal Inhibitory Concentration (MIC) SENSITIVE [2] | Minimal Inhibitory Concentration (MIC) SA 446 [3] | Minimal Inhibitory Concentration (MIC) SA 489 [4] | Minimal Inhibitory Concentration (MIC) SA 447 [5] | Minimal Inhibitory Concentration (MIC) SH 105 [6] | Minimal Inhibitory Concentration (MIC) SH 415 [7] | Minimal Inhibitory Concentration (MIC) SE 270 [8] | Minimal Inhibitory Concentration (MIC) SPY C203 [9] | Minimal Inhibitory Concentration (MIC) SPN P1 [10]
CC(C)CC(C(=O)NC1C(=O)NC(CC(N)=O)C(=O)NC2C(=O)NC3C(=O)NC(C(=O)NC(C(=O)O)c4cc(O)cc(O)c4-c4cc3ccc4O)C(OC3CC(C)(N)C(O)C(C)O3)c3ccc(c(Cl)c3)Oc3cc2cc(c3OC2OC(CO)C(O)C(O)C2OC2CC(C)(N)C(O)C(C)O2)Oc2ccc(cc2Cl)C1O)N(C)C(=S)Nc1ccc([N+](=O)[O-])cc1 (stereo not shown) [Example 14, N^LEU -((p-NITROPHENYL)-THIOCARBAMOYL)A82846B] | > 128 | 3.5 | 2 | 2 | 4 | 16 | 32 | 4 | ≤ 0.06 | 0.25
CC(C)CC(C(=O)NC1C(=O)NC(CC(N)=O)C(=O)NC2C(=O)NC3C(=O)NC(C(=O)NC(C(=O)O)c4cc(O)cc(O)c4-c4cc3ccc4O)C(OC3CC(C)(N)C(O)C(C)O3)c3ccc(c(Cl)c3)Oc3cc2cc(c3OC2OC(CO)C(O)C(O)C2OC2CC(C)(N)C(O)C(C)O2)Oc2ccc(cc2Cl)C1O)N(C)C(=S)Nc1ccc(N(C)C)cc1 (stereo not shown) [Example 15, N^LEU -((p-(DIMETHYLAMINO)-PHENYL)THIOCARBAMOYL)A82846B] | > 128 | 24 | 8 | 4 | 16 | > 64 | > 64 | 16 | 0.25 | 0.25
CC(C)CC(C(=O)NC1C(=O)NC(CC(N)=O)C(=O)NC2C(=O)NC3C(=O)NC(C(=O)NC(C(=O)O)c4cc(O)cc(O)c4-c4cc3ccc4O)C(OC3CC(C)(N)C(O)C(C)O3)c3ccc(c(Cl)c3)Oc3cc2cc(c3OC2OC(CO)C(O)C(O)C2OC2CC(C)(N)C(O)C(C)O2)Oc2ccc(cc2Cl)C1O)N(C)C(=S)Nc1ccc(OCc2ccccc2)cc1 (stereo not shown) [Example 16, N^LEU -((p-(BENZYLOXY)PHENYL)-THIOCARBAMOYL)A82846B] | > 128 | 7 | 1 | 0.5 | 1 | 8 | 64 | 4 | ≤ 0.06 | 0.125
CCCCc1ccc(NC(=S)N(C)C(CC(C)C)C(=O)NC2C(=O)NC(CC(N)=O)C(=O)NC3C(=O)NC4C(=O)NC(C(=O)NC(C(=O)O)c5cc(O)cc(O)c5-c5cc4ccc5O)C(OC4CC(C)(N)C(O)C(C)O4)c4ccc(c(Cl)c4)Oc4cc3cc(c4OC3OC(CO)C(O)C(O)C3OC3CC(C)(N)C(O)C(C)O3)Oc3ccc(cc3Cl)C2O)cc1 (stereo not shown) [Example 17, N^LEU -((p-n-BUTYLPHENYL)-THIOCARBAMOYL)A82846B] | > 128 | 6.1 | 2 | 1 | 1 | 4 | 32 | 2 | 0.25 | ≤ 0.06
CCCCc1ccc(NC(=S)N(C)C(CC(C)C)C(=O)NC2C(=O)NC(CC(N)=O)C(=O)NC3C(=O)NC4C(=O)NC(C(=O)NC(C(=O)O)c5cc(O)cc(O)c5-c5cc4ccc5O)C(OC4CC(C)(N)C(O)C(C)O4)c4ccc(c(Cl)c4)Oc4cc3cc(c4OC3OC(CO)C(O)C(O)C3OC3CC(C)(NCc4ccc(Oc5ccccc5)cc4)C(O)C(C)O3)Oc3ccc(cc3Cl)C2O)cc1 (stereo not shown) [Example 18, N^LEU -((p-n-BUTYLPHENYL)-THIOCARBAMOYL)-N^DISACC -(p-PHENOXYBENZYL)A82846B] | 4.7 | 1.7 | 2 | 2 | 2 | 2 | 2 | 2 | 0.25 | 2
CC(C)CC(C(=O)NC1C(=O)NC(CC(N)=O)C(=O)NC2C(=O)NC3C(=O)NC(C(=O)NC(C(=O)O)c4cc(O)cc(O)c4-c4cc3ccc4O)C(OC3CC(C)(N)C(O)C(C)O3)c3ccc(c(Cl)c3)Oc3cc2cc(c3OC2OC(CO)C(O)C(O)C2OC2CC(C)(NCc3ccc(Oc4ccccc4)cc3)C(O)C(C)O2)Oc2ccc(cc2Cl)C1O)N(C)C(=S)Nc1ccc(N(C)C)cc1 (stereo not shown) [Example 19, N^LEU -((p-(DIMETHYLAMINO)-PHENYL)THIOCARBAMOYL)-N^DISACC -(p-PHENOXYBENZYL)A82846B] | 19 | 2.6 | 2 | 2 | 2 | 2 | 4 | 2 | 0.25 | 2
CC(C)CC(C(=O)NC1C(=O)NC(CC(N)=O)C(=O)NC2C(=O)NC3C(=O)NC(C(=O)NC(C(=O)O)c4cc(O)cc(O)c4-c4cc3ccc4O)C(OC3CC(C)(N)C(O)C(C)O3)c3ccc(c(Cl)c3)Oc3cc2cc(c3OC2OC(CO)C(O)C(O)C2OC2CC(C)(NCc3ccc(Oc4ccccc4)cc3)C(O)C(C)O2)Oc2ccc(cc2Cl)C1O)N(C)C(=S)Nc1ccc(OCc2ccccc2)cc1 (stereo not shown) [Example 20, N^LEU -((p-(BENZYLOXY)PHENYL)-THIOCARBAMOYL)-N^DISACC -(p-PHENOXYBENZYL)A82846B] | 9.5 | 5.6 | 4 | 2 | 2 | 2 | 2 | 1 | ≤ 0.06 | 4
